IC50 data for two compounds are collected here from article PMC8885417, “Pharmacological targeting of MTHFD2 suppresses acute myeloid leukemia by inducing thymidine depletion and replication stress” (Nature Cancer, 2022).

The target of one assay is T1, MTHFD1-(DC) (Homo sapiens, UniProt P11586).
T1 construct: dehydrogenase/cyclohydrolase (DC) domain
The experiment in a line: biochemical activity assay.

The target of a further assay is MTHFD2L (Homo sapiens, UniProt Q9H903). The experiment in a line: biochemical activity assay.

SMILES strings stand for the structures. pIC50: −log10 of the molar value.

T1 sequence (P11586 2-306 limits assumed): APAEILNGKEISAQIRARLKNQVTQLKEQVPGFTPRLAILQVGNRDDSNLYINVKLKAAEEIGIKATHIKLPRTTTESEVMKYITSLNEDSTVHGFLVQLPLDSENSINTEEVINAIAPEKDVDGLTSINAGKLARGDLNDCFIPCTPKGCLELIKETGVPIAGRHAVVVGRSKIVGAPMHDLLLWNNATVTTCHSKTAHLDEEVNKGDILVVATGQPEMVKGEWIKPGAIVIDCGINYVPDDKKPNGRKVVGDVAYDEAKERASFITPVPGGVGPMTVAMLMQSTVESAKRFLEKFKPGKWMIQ
Chain of MTHFD2L (Q9H903 whole entry): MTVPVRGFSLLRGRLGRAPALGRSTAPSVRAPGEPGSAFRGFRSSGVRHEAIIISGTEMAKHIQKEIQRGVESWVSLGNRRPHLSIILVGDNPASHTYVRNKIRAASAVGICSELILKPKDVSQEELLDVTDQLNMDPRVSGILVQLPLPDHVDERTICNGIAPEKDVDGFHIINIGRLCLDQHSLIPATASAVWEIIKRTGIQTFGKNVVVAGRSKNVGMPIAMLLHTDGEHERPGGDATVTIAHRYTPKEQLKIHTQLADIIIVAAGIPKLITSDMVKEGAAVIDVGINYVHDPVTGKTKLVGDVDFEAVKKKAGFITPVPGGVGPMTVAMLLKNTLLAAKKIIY

One may read the pIC50 as the negative decadic logarithm of the IC50, by convention in mol/L. A high value points to a small IC50. Take `Nc1nc2c(c(=O)[nH]1)N1C(=O)N(c3ccc(C(=O)N[C@@H](CCC(=O)O)C(=O)O)cc3)CC1CN2` (some centres unmarked) [LY345899]: the pIC50 at MTHFD1-(DC) was 6.27. With `Nc1nc(N)c(NC(=O)Nc2ccc(C(=O)N[C@@H](CCC(=O)O)C(=O)O)cc2)c(=O)[nH]1` [TH7299], the pIC50 at MTHFD2L was 6.90.
